Where “and” joins values, the source holds several entries; their conditions need not be identical. Equal entries are not always repeated. Where two headings read alike, the source gives them in different places.
Tests used:
[1] = test system: neonatal rat cardiac fibroblasts (NCF); assay: Neonatal rat cardiac fibroblast collagen synthesis (3H-proline incorporation); assay type: cell-based; conditions: AngII 100 nM stimulus
Procedure: The effect of the compounds on neonatal rat cardiac fibroblasts (NCF) collagen synthesis was determined by measuring ^3H-proline incorporation following a published protocol using AngII (100 nM) as the stimulus. ^3H-proline incorporation was determined in the same way as the cardiac myocyte hypertrophy assay described above.

[2] = In vitro metabolic stability, human liver microsomes; assay type: in vitro ADME; conditions: for half-life: NADPH-dependent, read-out: Apparent Degradation half-life; for microsomal CLint: read-out: In vitro CLint (μL/min/mg protein)
Procedure: (§1) The metabolic stability of compounds 4.1 and 4.5 was assayed in an in vitro assay which employed liver microsomes. Liver microsomes are valuable models for the determination of hepatic clearance because they contain a number of drug metabolising enzymes, such as the CYP450 enzymes. An in vitro metabolic stability study was conducted using human, rat and mouse liver microsomes as a prediction of the in vivo metabolic clearance. […] From the results, the rates of apparent compound degradation in human, rat and mouse liver microsomes were in agreement with the moderate to high microsome-predicted extraction ratios (EH) for both compounds 4.1 and 4.5.

[3] = molecular target: inactive non-phosphorylated p38α MAPK (Homo sapiens (Human), UniProt Q16539); assay: Fluorescence polarisation (FP) binding assay, inactive enzyme
Chain of inactive non-phosphorylated p38α MAPK (Q16539 whole entry): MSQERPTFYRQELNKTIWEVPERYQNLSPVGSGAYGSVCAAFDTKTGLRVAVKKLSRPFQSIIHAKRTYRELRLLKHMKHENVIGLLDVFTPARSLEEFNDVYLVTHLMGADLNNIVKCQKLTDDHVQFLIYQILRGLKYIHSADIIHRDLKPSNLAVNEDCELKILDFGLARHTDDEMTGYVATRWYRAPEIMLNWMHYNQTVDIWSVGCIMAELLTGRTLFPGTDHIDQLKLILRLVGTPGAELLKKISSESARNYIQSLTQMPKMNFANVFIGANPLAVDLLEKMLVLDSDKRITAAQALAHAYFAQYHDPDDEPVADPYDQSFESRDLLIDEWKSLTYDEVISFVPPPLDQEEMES
Procedure: (§2) A number of compounds were also assessed for the inhibition of p38α MAPK activity (www.kinase-screen.mrc.ac.uk) in which a radioactive (^33P-labelled ATP) filter binding assay was used to directly measure phosphate incorporation. Table 1 summarises the binding affinities of the synthesised compounds to both forms of the enzyme as well as the inhibitory activities against p38α MAPK. By way of enabling a comparison with a non-thiophene compound the biological testing was also carried out for known inhibitor RWJ67657, shown in table 1.
(§3) FP signals were measured with a PHERAstar microplate reader (BMG Labtech) using black, low-binding half-area 96 well plates (Corning). Each binding data point was carried out in duplicate or triplicate. Data were recorded in millipolarisation (mP) units and measured at an excitation wavelength of 485 nm and an emission wavelength of 520 nm. Tris(hydroxymethyl)aminomethane (Tris) assay buffer was used in all binding experiments and consisted of 10 mM Tris, […] potassium chloride, and 3.5 mM 3-((3-cholamidopropyl)dimethylammonium)-1-propanesulfonate (Chaps) at pH 8.0.
(§4) Test compounds were prepared from dimethylsulfoxide stocks (10 mM). […] Plates were incubated at room temperature for 1 hour and FP signals were recorded. For binding experiments to active p38α MAPK, the FP signals were recorded after 2 hours incubation at room temperature. Data is represented as mean±SEM from two to three independent experiments.

[4] = In vitro metabolic stability, rat liver microsomes; assay type: in vitro ADME; conditions: for half-life: NADPH-dependent, read-out: Apparent Degradation half-life; for microsomal CLint: read-out: In vitro CLint (μL/min/mg protein)
Procedure: as §1

[5] = test system: neonatal rat cardiac myocytes (NCM); assay: Neonatal rat cardiac myocyte hypertrophy (3H-leucine incorporation); assay type: cell-based
Procedure: Neonatal rat cardiac myocyte (NCM) hypertrophy was determined by ^3H-leucine incorporation following a published protocol on the above synthesised compounds using either Angiotensin II (AngII, 100 nM) or TNF-α (10 ng/mL) as the stimulus. ^3H levels were counted in scintillation fluid on a beta counter to determine levels of ^3H-leucine incorporation.

[6] = test system: IL-6 gene expression in monocytic (THP-1) cells; assay: LPS-induced IL-6 gene expression in THP-1 cells; assay type: cell-based; conditions: LPS-stimulated THP-1 cells
Procedure: Certain of the compounds were tested in a cellular assay for suppression of TNF-α and IL-6 gene expression in monocytic (THP-1) cells and the assay results are depicted in FIGS. 2 and 3. A published method was used whereby treating THP-1 cells with LPS induces TNF-α and IL-6 gene expression.

[7] = test system: neonatal rat cardiac fibroblasts (NCF); assay: NCF cell viability (MTT assay); assay type: cell-based
Procedure: Measurement of NCF cell viability was carried out using a published method with the 3-(4,5-dimethylthiazol-2-yl)-2,5-diphenyltetraxolium bromide (MTT) assay.

[8] = molecular target: active phosphorylated p38α MAPK (Homo sapiens (Human), UniProt Q16539); assay: Fluorescence polarisation (FP) binding assay, active enzyme
Chain of active phosphorylated p38α MAPK (Q16539 whole entry): as above
Procedure: as §2, §3, §4

[9] = In vitro metabolic stability, mouse liver microsomes; assay type: in vitro ADME; conditions: for half-life: NADPH-dependent, read-out: Apparent Degradation half-life; for microsomal CLint: read-out: In vitro CLint (μL/min/mg protein)
Procedure: as §1

p38α MAPK = p38α MAPK (Homo sapiens (Human), UniProt Q16539); assay: Radioactive (33P-labelled ATP) filter binding assay of p38α MAPK activity; assay type: biochemical
Chain of p38α MAPK (Q16539 whole entry): as above
Procedure: as §2

[10] = Acute toxicity study in rats; assay type: in vivo, male Sprague-Dawley (SD) rats; conditions: two weeks
Procedure: (§5) An acute toxicity study of compound 4.5 was carried out. In this toxicity study, four male Sprague-Dawley (SD) rats received 150 mg/kg of compound 4.5 twice daily by oral gavage over a period of two weeks. The control group consisting of four male SD rats received 1% carboxymethylcellulose (CMC) in water. Blood samples were collected for analysis at 1 and 12 hours after the first dose and at the 7 and 14 day troughs. The rats were then sacrificed and organs collected for analysis. Individual body weights were measured at day −1, 2, 4, 7, 10 and 14. FIG. 7 indicates the blood results from an acute toxicity study for 4.5.
(§6) The full blood, haemoglobin, haemocrit, red cell count, mean corpuscular haemoglobin, mean corpuscular volume, red cell distribution width, mean corpuscular haemoglobin concentration and liver function were all assessed. […] The CDCO analysed blood samples using HPLC-MS to determine the concentrations of compound 4.5 in rat plasma at different time points (Table 3).

[11] = Plasma concentrations in the acute toxicity study (HPLC-MS); assay type: in vivo, rat; conditions: for Concentration in rat plasma: 150 mg/kg twice daily oral gavage, individual rats 1-4, rat 2 atypical and excluded
Procedure: as §5, §6

[12] = molecular target: p38α MAPK activation (phosphorylation) by MKK6 (Homo sapiens (Human), UniProt Q16539); assay: In vitro activation assay (phosphorylation of p38α MAPK by MKK6, western blot); assay type: biochemical
Chain of p38α MAPK activation (phosphorylation) by MKK6 (Q16539 whole entry): as above
Procedure: The assay was analysed by immunoblotting using antibodies against pan p38 MAPK and activated (phosphorylated) p38α MAPK. […] The reaction is initiated by the addition of ATP and MKK6 and proceeds for 15 minutes.
The assay was analysed by immunoblotting using antibodies against pan p38 MAPK and phosphorylated p38α MAPK.
The reaction was started by the addition of active MKK6 (5 ng) and ATP (100 μM). After 30 minutes incubation at room temperature, the reaction was stopped with ethylenediaminetetraacetic acid (EDTA) (10 mM). Phosphorylation of p38 MAPK was analysed by Western blotting.
Reaction samples were mixed 1:1 with Laemmli loading buffer, including β-mercaptoethanol (Biorad). Samples were heated at 95° C. for 5 minutes and 80 ng of protein was resolved using sodium dodecyl sulfate polyacrylamide gel electrophoresis (SDS-PAGE) gels (Biorad) at 200 V for 90 minutes. Proteins were transferred (100 V, 1 hour) to a polyvinylidene difluoride (PVDF) membrane (Merck). Membranes were incubated in blocking buffer (5% skim milk in Tris-buffered saline with Tween 20 (TBST), 1 hour, room temperature) and washed in TBST. Membranes were incubated with primary antibodies against total and phosphorylated p38 MAPK (1:1,000, Cell Signaling Technology) overnight at 4° C. Membranes were washed 4×15 minutes in TBST and probed with a secondary anti-mouse antibody at 1:2,000 dilution for 1 hour at room temperature, followed by washing in TBST (4×15 minutes). Signal detection was done with Western Lightning plus-ECL enhanced chemiluminescent substrate (Perkin Elmer) with the ChemiDoc Imaging System (BioRad).

[13] = Table 1, read-out: Ki (μM, mean ± SEM) inactive p38α
[14] = Table 6, read-out: Ki ± SEM (μM) to inactive p38α
[15] = Table 1, read-out: Ki (μM, mean ± SEM) active p38α
[16] = Table 6, read-out: Ki ± SEM (μM) to active p38α
[17] = 150 mg/kg twice daily oral gavage
[18] = Table 5, read-out: Ki ± SEM (μM) to inactive p38α MAPK
[19] = Table 5, read-out: Ki ± SEM (μM) to active p38α MAPK
[20] = read-out: Ki to active p38α MAPK

| Structure (SMILES) | Microsome predicted EH [2] | half-life [2] | microsomal CLint [2] | Ki [3, 13] | Ki [3, 14] | Microsome predicted EH [4] | half-life [4] | microsomal CLint [4] | Ki [8, 15] | Ki [8, 16] | Microsome predicted EH [9] | half-life [9] | microsomal CLint [9] | Ki [3, 18] | Ki [8, 19] | inhibition of p38α MAPK activation (phosphorylation) ([12]; 10 μM concentration) | Ki [8, 20] | other results |
| --- | --- | --- | --- | --- | --- | --- | --- | --- | --- | --- | --- | --- | --- | --- | --- | --- | --- | --- |
| OCCC#Cc1sc(-c2ccc(F)cc2)c(-c2ccncc2)c1CCCc1ccccc1 [Compound 4.1, 4-(5-(4-Fluorophenyl)-3-(3-phenylpropyl)-4-(pyridin-4-yl)thiophen-2-yl)but-3-yn-1-ol] | 0.92 | 8 min | 219 µL/min/mg | 2.3 ± 0.2 µM | 2.3 ± 0.2 µM | ~0.91 | ~5 min | ~319 µL/min/mg | 0.6 ± 0.1 µM | 0.6 ± 0.1 µM | ~0.94 | ~5 min | ~342 µL/min/mg | – | – | – | – | inhibition of AngII-stimulated NCF collagen synthesis [1]: did not suppress AngII-induced NCF collagen synthesis at 1 μM concentration; suppression of AngII-induced NCM hypertrophy ([5]; AngII 100 nM stimulus): suppression of NCM hypertrophy; suppression of TNF-α-induced NCM hypertrophy ([5]; TNF-α 10 ng/mL stimulus): suppression of NCM hypertrophy; inhibition of LPS-induced IL-6 gene expression [6]: strong inhibition; NCF cell viability ([7]; 10 μM concentration): no affect on NCF cell viability; IC50 (p38α MAPK; Table 1, average of two experiments, read-out: IC50 (μM, mean)): 0.18 µM; IC50 (p38α MAPK; Table 6, read-out: IC50 (mean)): 0.18 µM |
| OCCC#Cc1cc(-c2ccncc2)c(-c2ccc(F)cc2)s1 [Compound 4.5, 4-(5-(4-Fluorophenyl)-4-(pyridin-4-yl)thiophen-2-yl)but-3-yn-1-ol] | 0.58 | 71 min | 24 µL/min/mg | – | – | 0.78 | 16 min | 110 µL/min/mg | – | – | 0.89 | 9 min | 184 µL/min/mg | – | – | – | – | average body weight compared to vehicle group [10, 17]: no difference in the average body weight compared to the vehicle group; full blood, haemoglobin, haemocrit, red cell parameters and liver function, treated vs vehicle [10, 17]: No differences were observed between treated and vehicle groups; liver function [10, 17]: no changes to liverfunction; mass of the spleen [10, 17]: loss in the mass of the spleen; weights of the kidneys, heart and liver [10, 17]: the same as the vehicle group; tolerability in rats ([10]; 300 mg/kg/day): well tolerated; Concentration in rat plasma ([11]; 1 hour post first dose): 1357 nM and 0.9 nM and 325 nM and 327 nM; Concentration in rat plasma ([11]; 12 hours post first dose): 8 nM and 7 nM and 147 nM and 5 nM; Concentration in rat plasma ([11]; 7 day trough): 5 nM and 424 nM and 58 nM and 6 nM; Concentration in rat plasma ([11]; 14 day trough): 7 nM and 105 nM and 32 nM and 14 nM; peak plasma levels relative to the enzyme IC50 value ([11]; intake of 300 mg/kg/day, rat): two to nine times higher; NCF cell viability ([7]; 25 μM concentration): no affect on NCF cell viability |
| O=C(c1ccccc1)c1cc(-c2ccncc2)c(-c2ccc(F)cc2)s1 [Compound 5.16, (5-(4-Fluorophenyl)-4-(pyridin-4-yl)thiophen-2-yl) (phenyl)methanone] | – | – | – | – | 5 ± 2 µM | – | – | – | – | 2.8 ± 0.1 µM | – | – | – | 5 ± 2 µM | 2.8 ± 0.1 µM | inhibition of p38α MAPK activation | – | – |
| Nc1nc(F)c(F)c(-c2cc(-c3ccncc3)c(-c3ccc(F)cc3)s2)c1F [Compound 5.20, 3,5,6-Trifluoro-4-(5-(4-fluorophenyl)-4-(pyridin-4-yl)thiophen-2-yl)pyridin-2-amine] | – | – | – | – | 0.66 ± 0.06 µM | – | – | – | – | 0.21 ± 0.01 µM | – | – | – | 0.66 ± 0.06 µM | 0.21 ± 0.01 µM | inhibition of p38α MAPK activation | 0.2 µM | – |
| Nc1nc(N)c(F)c(-c2cc(-c3ccncc3)c(-c3ccc(F)cc3)s2)c1F [Compound 5.21, 3,5-Difluoro-4-(5-(4-fluorophenyl)-4-(pyridin-4-yl)thiophen-2-yl)pyridine-2,6-diamine] | – | – | – | – | 0.47 ± 0.01 µM | – | – | – | – | 0.16 ± 0.02 µM | – | – | – | 0.47 ± 0.01 µM | 0.16 ± 0.02 µM | inhibition of p38α MAPK activation | 0.16 µM | Ki ([3]; read-out: Ki to inactive non-phosphorylated p38α MAPK): 0.47 µM; inhibition of p38α MAPK activation (phosphorylation) ([12]; 1 μM concentration): significant inhibition |
| OCCC#Cc1nc(-c2ccc(F)cc2)c(-c2ccncc2)n1CCCc1ccccc1 [RWJ67657, reference compound] | – | – | – | 0.21 ± 0.04 µM | 0.21 ± 0.04 µM | – | – | – | 0.013 ± 0.006 µM | 0.013 ± 0.006 µM | – | – | – | 0.21 ± 0.04 µM | 0.013 ± 0.006 µM | inhibition of p38α MAPK activation | – | – |

— US11273153B2, “MAPK inhibitors” (EverBrilliant Pharma Pty Ltd, priority 2014, dated 2022)
